Laboratory results: patent US20230085307A1, “PYRIDAZINONE COMPOUND AND HERBICIDE” (NISSAN CHEMICAL CORPORATION, priority 2019, published 2023)

What was measured:
green foxtail [1] = experiment: Test Example 5: herbicidal effect by foliage application, plastic box (Table 20, symbol G); format: in vivo, green foxtail (Setaria viridis); details: 320 g/ha, foliage application after 14-day growth, evaluated three weeks after application
Method in brief: (§1)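 Foliar spray test: emulsion formulation diluted in water to a set application rate, sprayed onto 14-day-old plants raised in diluvial soil at 25° C to 30° C under glass. Both herbicidal effect and crop effect rated visually three weeks later.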

wild oat [2] = experiment: Test Example 4: herbicidal effect by soil treatment (Table 19, symbol I); format: in vivo, wild oat (Avena fatua); details: amount of applied herbicide 320 g/ha
Method in brief: (§2)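 Step 1: sow seeds in sterilized diluvial soil, cover ~1.5 cm. Step 2: spray diluted emulsion onto soil surface at predetermined rate. Step 3: greenhouse, 25–30° C, three weeks. Step 4: grade effect on each plant by earlier criteria.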

redroot pigweed [3] = experiment: Test Example 5: herbicidal effect by foliage application, plastic box (Table 20, symbol N); format: in vivo, redroot pigweed (Amaranthus retroflexus); details: 320 g/ha, foliage application after 14-day growth, evaluated three weeks after application
Method in brief: as §1

persian speedwell [4] = experiment: Test Example 5: herbicidal effect by foliage application, plastic box (Table 20, symbol R); format: in vivo, Persian speedwell (Veronica persica); details: 320 g/ha, foliage application after 14-day growth, evaluated three weeks after application
Method in brief: as §1

redroot pigweed [5] = experiment: Test Example 4: herbicidal effect by soil treatment (Table 19, symbol N); format: in vivo, redroot pigweed (Amaranthus retroflexus); details: amount of applied herbicide 320 g/ha
Method in brief: as §2

southern crabgrass [6] = experiment: Test Example 5: herbicidal effect by foliage application, plastic box (Table 20, symbol F); format: in vivo, southern crabgrass (Digitaria ciliaris); details: 320 g/ha, foliage application after 14-day growth, evaluated three weeks after application
Method in brief: as §1

Italian ryegrass [7] = experiment: Test Example 5: herbicidal effect by foliage application, plastic box (Table 20, symbol K); format: in vivo, Italian ryegrass (Lolium multiflorum); details: 320 g/ha, foliage application after 14-day growth, evaluated three weeks after application
Method in brief: as §1

blackgrass [8] = experiment: Test Example 4: herbicidal effect by soil treatment (Table 19, symbol J); format: in vivo, blackgrass (Alopecurus myosuroides); details: amount of applied herbicide 320 g/ha
Method in brief: as §2

barnyard grass [9] = experiment: Test Example 5: herbicidal effect by foliage application, plastic box (Table 20, symbol H); format: in vivo, barnyard grass (Echinochloa crus-galli); details: 320 g/ha, foliage application after 14-day growth, evaluated three weeks after application
Method in brief: as §1

barnyard grass [10] = experiment: Test Example 3: herbicidal effect by foliage application, Wagner pot (Table 18, symbol H); format: in vivo, barnyard grass (Echinochloa crus-galli); details: 320 g/ha
Method in brief: (§3)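 Plants were sown in alluvial soil held under 0.1–0.5 cm standing water and grown 14 days in a greenhouse at 25–30 °C. An emulsifiable formulation, water-diluted to the set dose, was then sprayed onto the foliage, and effects were scored three weeks later using previously defined criteria.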

southern crabgrass [11] = experiment: Test Example 4: herbicidal effect by soil treatment (Table 19, symbol F); format: in vivo, southern crabgrass (Digitaria ciliaris); details: amount of applied herbicide 320 g/ha
Method in brief: as §2

blackgrass [12] = experiment: Test Example 5: herbicidal effect by foliage application, plastic box (Table 20, symbol J); format: in vivo, blackgrass (Alopecurus myosuroides); details: 320 g/ha, foliage application after 14-day growth, evaluated three weeks after application
Method in brief: as §1

lambsquarters [13] = experiment: Test Example 4: herbicidal effect by soil treatment (Table 19, symbol O); format: in vivo, lambsquarters (Chenopodium album); details: amount of applied herbicide 320 g/ha
Method in brief: as §2

chickweed [14] = experiment: Test Example 5: herbicidal effect by foliage application, plastic box (Table 20, symbol P); format: in vivo, common chickweed (Stellaria media); details: 320 g/ha, foliage application after 14-day growth, evaluated three weeks after application
Method in brief: as §1

barnyard grass [15] = experiment: Test Example 4: herbicidal effect by soil treatment (Table 19, symbol H); format: in vivo, barnyard grass (Echinochloa crus-galli); details: amount of applied herbicide 320 g/ha
Method in brief: as §2

Japanese bulrush = experiment: Test Example 1: herbicidal activity, application before weed generation under submerged conditions (Table 16, symbol B); format: in vivo, Japanese bulrush (Schoenoplectus juncoides); details: amount of applied herbicide 320 g/ha
Method in brief: (§4)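 Alluvial soil was flooded to 4 cm depth, weed seeds were sown mixed and 2.5-leaf rice seedlings were transplanted. On sowing day, the compound's emulsion, diluted in water to a set dose, was applied to the water surface. Plants grew at 25–30 °C and were scored 0–5 after three weeks.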

persian speedwell [16] = experiment: Test Example 4: herbicidal effect by soil treatment (Table 19, symbol R); format: in vivo, Persian speedwell (Veronica persica); details: amount of applied herbicide 320 g/ha
Method in brief: as §2

chickweed [17] = experiment: Test Example 4: herbicidal effect by soil treatment (Table 19, symbol P); format: in vivo, common chickweed (Stellaria media); details: amount of applied herbicide 320 g/ha
Method in brief: as §2

Italian ryegrass [18] = experiment: Test Example 4: herbicidal effect by soil treatment (Table 19, symbol K); format: in vivo, Italian ryegrass (Lolium multiflorum); details: amount of applied herbicide 320 g/ha
Method in brief: as §2

windgrass [19] = experiment: Test Example 4: herbicidal effect by soil treatment (Table 19, symbol L); format: in vivo, windgrass (Apera spica-venti); details: amount of applied herbicide 320 g/ha
Method in brief: as §2

velvetleaf [20] = experiment: Test Example 5: herbicidal effect by foliage application, plastic box (Table 20, symbol M); format: in vivo, velvetleaf (Abutilon theophrasti); details: 320 g/ha, foliage application after 14-day growth, evaluated three weeks after application
Method in brief: as §1

green foxtail [21] = experiment: Test Example 4: herbicidal effect by soil treatment (Table 19, symbol G); format: in vivo, green foxtail (Setaria viridis); details: amount of applied herbicide 320 g/ha
Method in brief: as §2

Chinese sprangletop = experiment: Test Example 3: herbicidal effect by foliage application, Wagner pot (Table 18, symbol D); format: in vivo, chinese sprangletop (Leptochloa chinensis); details: 320 g/ha
Method in brief: as §3

late watergrass = experiment: Test Example 1: herbicidal activity, application before weed generation under submerged conditions (Table 16, symbol A); format: in vivo, late watergrass (Echinochloa oryzicola); details: amount of applied herbicide 320 g/ha
Method in brief: as §4

rice flat sedge = experiment: Test Example 3: herbicidal effect by foliage application, Wagner pot (Table 18, symbol E); format: in vivo, rice flat sedge (Cyperus iria); details: 320 g/ha
Method in brief: as §3

velvetleaf [22] = experiment: Test Example 4: herbicidal effect by soil treatment (Table 19, symbol M); format: in vivo, velvetleaf (Abutilon theophrasti); details: amount of applied herbicide 320 g/ha
Method in brief: as §2

lambsquarters [23] = experiment: Test Example 5: herbicidal effect by foliage application, plastic box (Table 20, symbol O); format: in vivo, lambsquarters (Chenopodium album); details: 320 g/ha, foliage application after 14-day growth, evaluated three weeks after application
Method in brief: as §1

windgrass [24] = experiment: Test Example 5: herbicidal effect by foliage application, plastic box (Table 20, symbol L); format: in vivo, windgrass (Apera spica-venti); details: 320 g/ha, foliage application after 14-day growth, evaluated three weeks after application
Method in brief: as §1

wild oat [25] = experiment: Test Example 5: herbicidal effect by foliage application, plastic box (Table 20, symbol I); format: in vivo, wild oat (Avena fatua); details: 320 g/ha, foliage application after 14-day growth, evaluated three weeks after application
Method in brief: as §1

oval-leafed pondweed = experiment: Test Example 1: herbicidal activity, application before weed generation under submerged conditions (Table 16, symbol C); format: in vivo, oval-leafed pondweed (Monochoria vaginalis); details: amount of applied herbicide 320 g/ha
Method in brief: as §4

Structure (SMILES)	herbicidal effect on G: green foxtail (evaluation grade 0-5) (green foxtail [1])	Herbicidal effect by soil treatment, I: wild oat (wild oat [2])	herbicidal effect on N: redroot pigweed (evaluation grade 0-5) (redroot pigweed [3])	herbicidal effect on R: persian speedwell (evaluation grade 0-5) (persian speedwell [4])	Herbicidal effect by soil treatment, N: redroot pigweed (redroot pigweed [5])	herbicidal effect on F: southern crabgrass (evaluation grade 0-5) (southern crabgrass [6])	herbicidal effect on K: Italian ryegrass (evaluation grade 0-5) (Italian ryegrass [7])	Herbicidal effect by soil treatment, J: blackgrass (blackgrass [8])	herbicidal effect on H: barnyard grass (evaluation grade 0-5) (barnyard grass [9])	herbicidal effect on barnyard grass (H) (barnyard grass [10])	Herbicidal effect by soil treatment, F: southern crabgrass (southern crabgrass [11])	herbicidal effect on J: blackgrass (evaluation grade 0-5) (blackgrass [12])	Herbicidal effect by soil treatment, O: lambsquarters (lambsquarters [13])	herbicidal effect on P: chickweed (evaluation grade 0-5) (chickweed [14])	Herbicidal effect by soil treatment, H: barnyard grass (barnyard grass [15])	Herbicidal effect, B: Japanese bulrush (Japanese bulrush)	Herbicidal effect by soil treatment, R: persian speedwell (persian speedwell [16])	Herbicidal effect by soil treatment, P: chickweed (chickweed [17])	Herbicidal effect by soil treatment, K: Italian ryegrass (Italian ryegrass [18])	Herbicidal effect by soil treatment, L: windgrass (windgrass [19])	other results
CCOc1cc(F)ccc1-c1sc2c(Cl)cccc2c1-c1c(O)c(C)nn(C)c1=O [4-035]	5 (Herbicidal rate of 90% or more (almost completely withered))	0 (Herbicidal rate of 5% or less (almost no effect))	5 (Herbicidal rate of 90% or more (almost completely withered))	5 (Herbicidal rate of 90% or more (almost completely withered))	3 (Herbicidal rate of 40% or more and less than 70%)	5 (Herbicidal rate of 90% or more (almost completely withered))	4 (Herbicidal rate of 70% or more and less than 90%)	0 (Herbicidal rate of 5% or less (almost no effect))	5 (Herbicidal rate of 90% or more (almost completely withered))	5 (Herbicidal rate of 90% or more (almost completely withered))	4 (Herbicidal rate of 70% or more and less than 90%)	5 (Herbicidal rate of 90% or more (almost completely withered))	0 (Herbicidal rate of 5% or less (almost no effect))	4 (Herbicidal rate of 70% or more and less than 90%)	5 (Herbicidal rate of 90% or more (almost completely withered))	0 (Herbicidal rate of 5% or less (almost no effect))	1 (Herbicidal rate of 5% or more and less than 20%)	3 (Herbicidal rate of 40% or more and less than 70%)	0 (Herbicidal rate of 5% or less (almost no effect))	0 (Herbicidal rate of 5% or less (almost no effect))	herbicidal effect on M: velvetleaf (evaluation grade 0-5) (velvetleaf [20]): 4 (Herbicidal rate of 70% or more and less than 90%); Herbicidal effect by soil treatment, G: green foxtail (green foxtail [21]): 3 (Herbicidal rate of 40% or more and less than 70%); herbicidal effect on Chinese sprangletop (D) (Chinese sprangletop): 3 (Herbicidal rate of 40% or more and less than 70%); Herbicidal effect, A: late watergrass (late watergrass): 2 (Herbicidal rate of 20% or more and less than 40%); herbicidal effect on rice flat sedge (E) (rice flat sedge): 5 (Herbicidal rate of 90% or more (almost completely withered)); Herbicidal effect by soil treatment, M: velvetleaf (velvetleaf [22]): 2 (Herbicidal rate of 20% or more and less than 40%); herbicidal effect on O: lambsquarters (evaluation grade 0-5) (lambsquarters [23]): 4 (Herbicidal rate of 70% or more and less than 90%); herbicidal effect on L: windgrass (evaluation grade 0-5) (windgrass [24]): 5 (Herbicidal rate of 90% or more (almost completely withered)); herbicidal effect on I: wild oat (evaluation grade 0-5) (wild oat [25]): 0 (Herbicidal rate of 5% or less (almost no effect)); Herbicidal effect, C: oval-leafed pondweed (oval-leafed pondweed): 0 (Herbicidal rate of 5% or less (almost no effect))
CCCC(=O)Oc1c(C)nn(C)c(=O)c1-c1c(-c2ccc(OC(F)(F)F)cc2)sc2c(F)cccc12 [4-049]	4 (Herbicidal rate of 70% or more and less than 90%)	0 (Herbicidal rate of 5% or less (almost no effect))	5 (Herbicidal rate of 90% or more (almost completely withered))	5 (Herbicidal rate of 90% or more (almost completely withered))	4 (Herbicidal rate of 70% or more and less than 90%)	0 (Herbicidal rate of 5% or less (almost no effect))	0 (Herbicidal rate of 5% or less (almost no effect))	0 (Herbicidal rate of 5% or less (almost no effect))	5 (Herbicidal rate of 90% or more (almost completely withered))	5 (Herbicidal rate of 90% or more (almost completely withered))	0 (Herbicidal rate of 5% or less (almost no effect))	0 (Herbicidal rate of 5% or less (almost no effect))	3 (Herbicidal rate of 40% or more and less than 70%)	5 (Herbicidal rate of 90% or more (almost completely withered))	0 (Herbicidal rate of 5% or less (almost no effect))	0 (Herbicidal rate of 5% or less (almost no effect))	4 (Herbicidal rate of 70% or more and less than 90%)	3 (Herbicidal rate of 40% or more and less than 70%)	0 (Herbicidal rate of 5% or less (almost no effect))	0 (Herbicidal rate of 5% or less (almost no effect))	herbicidal effect on M: velvetleaf (evaluation grade 0-5) (velvetleaf [20]): 5 (Herbicidal rate of 90% or more (almost completely withered)); Herbicidal effect by soil treatment, G: green foxtail (green foxtail [21]): 0 (Herbicidal rate of 5% or less (almost no effect)); herbicidal effect on Chinese sprangletop (D) (Chinese sprangletop): 3 (Herbicidal rate of 40% or more and less than 70%); Herbicidal effect, A: late watergrass (late watergrass): 3 (Herbicidal rate of 40% or more and less than 70%); herbicidal effect on rice flat sedge (E) (rice flat sedge): 5 (Herbicidal rate of 90% or more (almost completely withered)); Herbicidal effect by soil treatment, M: velvetleaf (velvetleaf [22]): 0 (Herbicidal rate of 5% or less (almost no effect)); herbicidal effect on O: lambsquarters (evaluation grade 0-5) (lambsquarters [23]): 3 (Herbicidal rate of 40% or more and less than 70%); herbicidal effect on L: windgrass (evaluation grade 0-5) (windgrass [24]): 0 (Herbicidal rate of 5% or less (almost no effect)); herbicidal effect on I: wild oat (evaluation grade 0-5) (wild oat [25]): 0 (Herbicidal rate of 5% or less (almost no effect)); Herbicidal effect, C: oval-leafed pondweed (oval-leafed pondweed): 0 (Herbicidal rate of 5% or less (almost no effect))
